Measured values reported in patent US20100166933A1, “Frozen Confectionery and Beverage Products” (priority 2008, published 2010).

How the values were obtained:
[1] = Human crossover study, systolic blood pressure (Example 4); details: theobromine 700 mg, caffeine 120 mg; for Change in systolic blood pressure, 1 hour: 1 hour after treatment; for Change in systolic blood pressure, 1 hour / Change in systolic blood pressure, 3 hours / Change in systolic blood pressure, Time zero: gelatine capsule; for Change in systolic blood pressure, 3 hours: 3 hours after treatment
Description: (§1) Volunteers consumed one of 4 treatments: theobromine only, caffeine only, theobromine and caffeine combined or placebo. […] Theobromine was pharmaceutical grade, supplied by Fagron, Netherlands. […] The placebo capsules matched in appearance and were filled with Avicel (microcrystalline cellulose). The gelatin capsules (size 1) were supplied by Blockland Medical supplies and meet European Pharmacopoeia (Ph. Eur) standards. […] Twenty-four healthy volunteers took part and arrived at the laboratory having consumed a standard lunch and having abstained from theobromine- and caffeine-containing foods such as chocolate for 12 hours. At the start of each session, participants answered a baseline set of questionnaires, which took approximately 15 minutes to complete. On completion, they were given a 10 minute break in which to consume the capsules. The questionnaire was repeated 1, 2 and 3 hours after ingestion. Blood pressure was measured at 0, 1 and 3 hours after treatment. Participants were allowed to read quietly between test batteries.

[2] = Human crossover study, Bond-Lader mood questionnaire: alertness (Example 4); assay type: in vivo; details: theobromine 700 mg, caffeine 120 mg, gelatine capsule; for Alertness score in Bond-Lader test, 1 hour: 1 hour after ingestion; for Alertness score in Bond-Lader test, 2 hours: 2 hours after ingestion; for Alertness score in Bond-Lader test, 3 hours: 3 hours after ingestion; for Alertness score in Bond-Lader test, Time zero: time zero (baseline), 24 healthy volunteers
Description: as §1

For `Cn1c(=O)c2c(ncn2C)n(C)c1=O` [Caffeine, 1,3,7-trimethylxanthine], the “Change in systolic blood pressure, 1 hour” value [1] was “+10 Hgmm”, the “Change in systolic blood pressure, 3 hours” value [1] was −3 Hgmm and the “Effect on systolic blood pressure after 1 hour (in words)” value ([1]; after 1 hour) was “rise in systolic blood pressure (significantly higher than placebo)”. The “Change in systolic blood pressure, Time zero” value [1] was 0 Hgmm, the “Alertness score in Bond-Lader test, 1 hour” value [2] was “+0.01” and the “Alertness score in Bond-Lader test, 2 hours” value [2] was “+0.05”. The “Alertness score in Bond-Lader test, 3 hours” value [2] was “+0.07” and the “Alertness score in Bond-Lader test, Time zero” value [2] was 0.

In the case of `Cn1cnc2c1c(=O)[nH]c(=O)n2C` [Theobromine, 3,7-dimethylxanthine], the “Change in systolic blood pressure, 1 hour” value [1] is reported as “+3 Hgmm”, the “Change in systolic blood pressure, 3 hours” value [1] is reported as “+4 Hgmm” and the “Change in systolic blood pressure, Time zero” value [1] is reported as 0 Hgmm. For the same compound, the “Alertness score in Bond-Lader test, 1 hour” value [2] was −0.06, the “Alertness score in Bond-Lader test, 2 hours” value [2] was −0.03 and the “Alertness score in Bond-Lader test, 3 hours” value [2] was −0.01. For the same compound, the “Alertness score in Bond-Lader test, Time zero” value [2] was 0.
